Results from patent US7799803B2, “Hydroxamic acid compounds and methods of use thereof” (The Trustees of Columbia University in the City of New York, priority 2003, dated 2010).
Like-named read-outs stand apart in the source and are kept apart here.

Experiments:
[1] = target: T1, histone deacetylase, subtype 1 (HDAC1) (Homo sapiens, UniProt Q13547); assay: HDAC1-Flag in vitro deacetylation assay; assay type: biochemical
T1 construct: Flag; made in house
Procedure: Novel compounds were tested for their ability to inhibit histone deacetylase, subtype 1 (HDAC1) using an in vitro deacetylation assay. The enzyme source for this assay was an epitope-tagged human HDAC1 complex immuno-purified from stably expressing mammalian cells. The substrate consisted of a commercial product containing an acetylated lysine side chain (Biomol, Plymouth Meeting, Pa.). Upon deacetylation of the substrate by incubation with the purified HDAC1 complex, a fluorophore is produced that is directly proportional to the level of deacetylation. Using a substrate concentration at the Km for the enzyme preparation, the deacetylation assay was performed in the presence of increasing concentrations of novel compounds to semi-quantitatively determine the concentration of compound required for 50% inhibition (IC50) of the deacetylation reaction.

[2] = system: human bladder carcinoma cell line, T24; assay: T24 cell-based proliferation assay; conditions: T-24, T24 cells treated 72 hours, DNA quantitated with bisbenzamide, Table 3, read-out: Cell Growth Inhbition, IC50
Procedure: Proliferation The novel compounds of the present invention were tested for their ability to inhibit growth of the human bladder carcinoma cell line, T24. Cells were treated with compounds for 72 hours, lysed by freeze/thaw to expose the DNA, and then the DNA was quantitated using the intercalating dye, bisbenzamide (Sigma). Fluorescent intensity (ex 350λ em 460λ) was directly proportional to the number of cells per well. Fluorescence values from vehicle-treated cells were determined and used as 100%.

[3] = epitope-tagged human HDAC1 complex, substrate concentration at Km, Table 2, read-out: HDAC Inhibition IC50
[4] = Table 4, additional compounds, n = 2, read-out: HDAC inhibition IC50

T1 sequence (Q13547 whole entry): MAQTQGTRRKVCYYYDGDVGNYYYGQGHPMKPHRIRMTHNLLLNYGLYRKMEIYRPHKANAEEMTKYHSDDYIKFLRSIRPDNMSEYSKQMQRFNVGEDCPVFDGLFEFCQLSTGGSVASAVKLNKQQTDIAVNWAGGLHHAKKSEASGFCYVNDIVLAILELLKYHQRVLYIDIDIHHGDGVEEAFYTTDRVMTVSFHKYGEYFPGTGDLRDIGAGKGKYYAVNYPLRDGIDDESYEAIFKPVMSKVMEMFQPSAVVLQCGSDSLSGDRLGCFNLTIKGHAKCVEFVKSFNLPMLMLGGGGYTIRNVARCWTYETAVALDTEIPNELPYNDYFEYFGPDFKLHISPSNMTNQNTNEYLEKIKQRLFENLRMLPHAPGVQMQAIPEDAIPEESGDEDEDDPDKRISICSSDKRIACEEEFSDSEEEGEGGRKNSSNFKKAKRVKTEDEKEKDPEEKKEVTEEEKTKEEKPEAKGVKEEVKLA

With `O=C(CCCCC[C@H](NC(=O)OCc1ccccc1)C(=O)NCc1ccccc1)NO` [Compound 2] as the compound, how does the IC50 [1, 3] read?
The IC50 was 37.4 nM.

And the IC50 [2]?
Its IC50 is 1400 nM.

Which results are given for `O=C(CCCCC[C@H](NC(=O)c1ccc2ccccc2n1)C(=O)NCc1ccccc1)NO` [Compound 3]?
IC50 [1, 3]: 52.7 nM; IC50 [2]: 1700 nM

For `O=C(CCCCC[C@H](NC(=O)c1ccccc1)C(=O)NCc1ccccc1)NO` [Compound 4], which IC50 [1, 3] is on record?
Its IC50 is 73 nM.

And the IC50 [2]?
The IC50 was 3200 nM.

With `O=C(CCCCC[C@H](NC(=O)c1cccnc1)C(=O)NCc1ccccc1)NO` [Compound 5] as the compound, how does the IC50 [1, 3] read?
Its IC50 is 150 nM.

And the IC50 [2]?
The IC50 was 9200 nM.

For `O=C(CCCCC[C@H](NC(=O)OCc1ccccc1)C(=O)Nc1ccc2ncccc2c1)NO` [Compound 6a, (S)-[6-HYDROXYCARBAMOYL-1-(QUINOLIN-6-YLCARBAMOYL)-HEXYL]-CARBAMIC ACID BENZYL ESTER], which IC50 [1, 3] is on record?
The IC50 was 5.9 nM.

What about the IC50 [2] of the same compound?
Its IC50 is 200 nM.

What does the source list for `O=C(CCCCC[C@H](NC(=O)c1ccccc1)C(=O)Nc1ccc2ncccc2c1)NO` [Compound 6b, (2S)-2-BENZOYLAMINO-OCTANEDIOIC ACID 8-HYDROXYAMIDE 1-QUINOLIN-6-YLAMIDE]?
IC50 [1, 3]: 1.8 nM; IC50 [2]: 200 nM

`O=C(CCCCC[C@H](NC(=O)c1ccc2ccccc2n1)C(=O)Nc1ccc2ncccc2c1)NO` [Compound 7] was tested. Which IC50 [1, 3] did it give?
Its IC50 is 54.5 nM.

What about the IC50 [2] of the same compound?
The IC50 was 600 nM.

For `O=C(CCCCC[C@H](NC(=O)c1cccnc1)C(=O)Nc1ccc2ncccc2c1)NO` [Compound 8], which IC50 [1, 3] is on record?
Its IC50 is 1.6 nM.

What about the IC50 [2] of the same compound?
Its IC50 is 1800 nM.

Which results are given for `O=C(CCCCC[C@H](NC(=O)c1cccnc1)C(=O)Nc1cccc2cccnc12)NO` [Compound 9]?
IC50 [1, 3]: 4.1 nM; IC50 [2]: 400 nM

`O=C(CCCCC[C@H](NC(=O)c1ccc2ccccc2n1)C(=O)Nc1cccc2cccnc12)NO` [Compound 10] was tested. Which IC50 [1, 3] did it give?
The IC50 was 41.8 nM.

And the IC50 [2]?
Its IC50 is 1400 nM.

For `O=C(CCCCC[C@H](NC(=O)c1ccccc1)C(=O)Nc1cccc2cccnc12)NO` [Compound 11], which IC50 [1, 3] is on record?
Its IC50 is 12.7 nM.

And the IC50 [2]?
Its IC50 is 300 nM.

Which IC50 [1, 4] does the source give for `O=C(CCCCCC(C(=O)NCc1ccccc1)C(=O)NCc1ccccc1)NO` [Compound 12] here?
Its IC50 is 156 ± 22.6 nM.

Which IC50 [1, 4] does the source give for `O=C(CCCCCC(C(=O)NCCc1ccccc1)C(=O)NCCc1ccccc1)NO` [Compound 13] here?
The IC50 was 186 ± 21.9 nM.
